Measured values: PubChem BioAssay AID1919015 (Molecular Pharmacology Branch, DTP, NCI, 2023)

System: OVCAR-5 complex spheroids with HUVEC/MSC, viability, % test/control
Experiment: Anticancer human tumor OVCAR-5 cell line growth inhibition [AhR];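 further: spheroids exposed to compounds for 7 days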;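 on viability, T/C: 100% = DMSO vehicle control wells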
Details: for IC50: curve of first compound; for viability, T/C: stronger effect = lower value
Method in brief: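 Spheroids combined tumor cells with HUVEC endothelial cells and human MSCs as stroma. AhR antagonists were paired with standard or investigational drugs, each dosed in half-log steps down from near clinical Cmax, or from 10 microM where Cmax was unknown.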

[1] = second compound 0.1 µM, first compound 0.0316 µM
[2] = second compound 0.1 µM, first compound 0.1 µM
[3] = second compound 0.1 µM, first compound 0.316 µM
[4] = second compound 0.1 µM, first compound 1 µM
[5] = second compound 0.1 µM, first compound 3.16 µM
[6] = second compound 0.1 µM, first compound 10 µM
[7] = second compound 0.316 µM, first compound 0.0316 µM
[8] = second compound 0.316 µM, first compound 0.1 µM
[9] = second compound 0.316 µM, first compound 0.316 µM
[10] = second compound 0.316 µM, first compound 1 µM
[11] = second compound 0.316 µM, first compound 3.16 µM
[12] = second compound 0.316 µM, first compound 10 µM
[13] = second compound 1 µM, first compound 0.0316 µM
[14] = second compound 1 µM, first compound 0.1 µM
[15] = second compound 1 µM, first compound 0.316 µM
[16] = second compound 1 µM, first compound 1 µM
[17] = second compound 1 µM, first compound 3.16 µM
[18] = second compound 1 µM, first compound 10 µM
[19] = second compound 3.16 µM, first compound 0.0316 µM
[20] = second compound 3.16 µM, first compound 0.1 µM
[21] = second compound 3.16 µM, first compound 0.316 µM
[22] = second compound 3.16 µM, first compound 1 µM
[23] = second compound 3.16 µM, first compound 3.16 µM
[24] = second compound 3.16 µM, first compound 10 µM
[25] = second compound 10 µM, first compound 0.0316 µM
[26] = second compound 10 µM, first compound 0.1 µM
[27] = second compound 10 µM, first compound 0.316 µM
[28] = second compound 10 µM, first compound 1 µM
[29] = second compound 10 µM, first compound 3.16 µM
[30] = second compound 10 µM, first compound 10 µM
[31] = second compound 0.1 µM, first compound 0.00949 µM
[32] = second compound 0.1 µM, first compound 0.03 µM
[33] = second compound 0.1 µM, first compound 0.0949 µM
[34] = second compound 0.1 µM, first compound 0.3 µM
[35] = second compound 0.316 µM, first compound 0.00949 µM
[36] = second compound 0.316 µM, first compound 0.03 µM
[37] = second compound 0.316 µM, first compound 0.0949 µM
[38] = second compound 0.316 µM, first compound 0.3 µM
[39] = second compound 1 µM, first compound 0.00949 µM
[40] = second compound 1 µM, first compound 0.03 µM
[41] = second compound 1 µM, first compound 0.0949 µM
[42] = second compound 1 µM, first compound 0.3 µM
[43] = second compound 3.16 µM, first compound 0.00949 µM
[44] = second compound 3.16 µM, first compound 0.03 µM
[45] = second compound 3.16 µM, first compound 0.0949 µM
[46] = second compound 3.16 µM, first compound 0.3 µM
[47] = second compound 10 µM, first compound 0.00949 µM
[48] = second compound 10 µM, first compound 0.03 µM
[49] = second compound 10 µM, first compound 0.0949 µM
[50] = second compound 10 µM, first compound 0.3 µM

SMILES: CC1(C)CCC(CN2CCN(c3ccc(C(=O)NS(=O)(=O)c4ccc(NCC5CCOCC5)c([N+](=O)[O-])c4)c(Oc4cnc5[nH]ccc5c4)c3)CC2)=C(c2ccc(Cl)cc2)C1 + Cc1ccccc1N=Nc1ccc(NC(=O)c2ccnn2C)c(C)c1
- IC50 (second compound 0.1 µM): > 10000 nM
- IC50 (second compound 0.316 µM): > 10000 nM
- IC50 (second compound 1 µM): > 10000 nM
- IC50 (second compound 3.16 µM): > 10000 nM
- IC50 (second compound 10 µM): > 10000 nM
- viability, T/C [1]: 102%
- viability, T/C [2]: 101%
- viability, T/C [3]: 102%
- viability, T/C [4]: 95.7%
- viability, T/C [5]: 99.2%
- viability, T/C [6]: 52.7%
- viability, T/C [7]: 102%
- viability, T/C [8]: 106%
- viability, T/C [9]: 106%
- viability, T/C [10]: 103%
- viability, T/C [11]: 105%
- viability, T/C [12]: 53%
- viability, T/C [13]: 102%
- viability, T/C [14]: 113%
- viability, T/C [15]: 107%
- viability, T/C [16]: 112%
- viability, T/C [17]: 104%
- viability, T/C [18]: 56.9%
- viability, T/C [19]: 103%
- viability, T/C [20]: 115%
- viability, T/C [21]: 108%
- viability, T/C [22]: 112%
- viability, T/C [23]: 109%
- viability, T/C [24]: 54.2%
- viability, T/C [25]: 109%
- viability, T/C [26]: 107%
- viability, T/C [27]: 105%
- viability, T/C [28]: 108%
- viability, T/C [29]: 105%
- viability, T/C [30]: 57.3%

SMILES: CCN(c1cc(-c2ccc(CN3CCOCC3)cc2)cc(C(=O)NCc2c(C)cc(C)[nH]c2=O)c1C)C1CCOCC1 + Cc1ccccc1N=Nc1ccc(NC(=O)c2ccnn2C)c(C)c1
- IC50 (second compound 0.1 µM): > 3000 nM
- IC50 (second compound 0.316 µM): > 3000 nM
- IC50 (second compound 1 µM): > 3000 nM
- IC50 (second compound 3.16 µM): > 3000 nM
- IC50 (second compound 10 µM): > 3000 nM
- viability, T/C [31]: 105%
- viability, T/C [32]: 106%
- viability, T/C [33]: 102%
- viability, T/C [34]: 101%
- viability, T/C (second compound 0.1 µM, first compound 0.949 µM): 95%
- viability, T/C (second compound 0.1 µM, first compound 3 µM): 101%
- viability, T/C [35]: 107%
- viability, T/C [36]: 109%
- viability, T/C [37]: 107%
- viability, T/C [38]: 102%
- viability, T/C (second compound 0.316 µM, first compound 0.949 µM): 102%
- viability, T/C (second compound 0.316 µM, first compound 3 µM): 103%
- viability, T/C [39]: 112%
- viability, T/C [40]: 110%
- viability, T/C [41]: 111%
- viability, T/C [42]: 115%
- viability, T/C (second compound 1 µM, first compound 0.949 µM): 107%
- viability, T/C (second compound 1 µM, first compound 3 µM): 110%
- viability, T/C [43]: 115%
- viability, T/C [44]: 114%
- viability, T/C [45]: 115%
- viability, T/C [46]: 109%
- viability, T/C (second compound 3.16 µM, first compound 0.949 µM): 109%
- viability, T/C (second compound 3.16 µM, first compound 3 µM): 112%
- viability, T/C [47]: 106%
- viability, T/C [48]: 103%
- viability, T/C [49]: 104%
- viability, T/C [50]: 105%
- viability, T/C (second compound 10 µM, first compound 0.949 µM): 99.9%
- viability, T/C (second compound 10 µM, first compound 3 µM): 98.2%

SMILES: Cn1ncnc1C1c2n[nH]c(=O)c3cc(F)cc(c23)NC1c1ccc(F)cc1 (stereo not given) + Cc1ccccc1N=Nc1ccc(NC(=O)c2ccnn2C)c(C)c1
- IC50 (second compound 0.1 µM): > 100 nM
- IC50 (second compound 0.316 µM): > 100 nM
- IC50 (second compound 1 µM): > 100 nM
- IC50 (second compound 3.16 µM): > 100 nM
- IC50 (second compound 10 µM): > 100 nM
- viability, T/C (second compound 0.1 µM, first compound 0.000316 µM): 105%
- viability, T/C (second compound 0.1 µM, first compound 0.001 µM): 107%
- viability, T/C (second compound 0.1 µM, first compound 0.00316 µM): 101%
- viability, T/C (second compound 0.1 µM, first compound 0.01 µM): 96.2%
- viability, T/C [1]: 94.5%
- viability, T/C [2]: 90.9%
- viability, T/C (second compound 0.316 µM, first compound 0.000316 µM): 108%
- viability, T/C (second compound 0.316 µM, first compound 0.001 µM): 110%
- viability, T/C (second compound 0.316 µM, first compound 0.00316 µM): 104%
- viability, T/C (second compound 0.316 µM, first compound 0.01 µM): 102%
- viability, T/C [7]: 96.6%
- viability, T/C [8]: 98.8%
- viability, T/C (second compound 1 µM, first compound 0.000316 µM): 111%
- viability, T/C (second compound 1 µM, first compound 0.001 µM): 113%
- viability, T/C (second compound 1 µM, first compound 0.00316 µM): 111%
- viability, T/C (second compound 1 µM, first compound 0.01 µM): 102%
- viability, T/C [13]: 101%
- viability, T/C [14]: 102%
- viability, T/C (second compound 3.16 µM, first compound 0.000316 µM): 110%
- viability, T/C (second compound 3.16 µM, first compound 0.001 µM): 116%
- viability, T/C (second compound 3.16 µM, first compound 0.00316 µM): 118%
- viability, T/C (second compound 3.16 µM, first compound 0.01 µM): 109%
- viability, T/C [19]: 101%
- viability, T/C [20]: 108%
- viability, T/C (second compound 10 µM, first compound 0.000316 µM): 106%
- viability, T/C (second compound 10 µM, first compound 0.001 µM): 105%
- viability, T/C (second compound 10 µM, first compound 0.00316 µM): 102%
- viability, T/C (second compound 10 µM, first compound 0.01 µM): 105%
- viability, T/C [25]: 102%
- viability, T/C [26]: 102%

SMILES: NS(=O)(=O)OCC1CC(n2ccc3c(NC4CCc5ccccc54)ncnc32)CC1O (stereo not given) + Cc1ccccc1N=Nc1ccc(NC(=O)c2ccnn2C)c(C)c1
- IC50 (second compound 0.1 µM): 201 nM
- IC50 (second compound 0.316 µM): 178 nM
- IC50 (second compound 1 µM): 141 nM
- IC50 (second compound 3.16 µM): 96.3 nM
- IC50 (second compound 10 µM): 94.6 nM
- viability, T/C [1]: 96.4%
- viability, T/C [2]: 66.9%
- viability, T/C [3]: 40.8%
- viability, T/C [4]: 16.2%
- viability, T/C [5]: 9.98%
- viability, T/C [6]: 10.5%
- viability, T/C [7]: 88.3%
- viability, T/C [8]: 63.3%
- viability, T/C [9]: 37.8%
- viability, T/C [10]: 14.3%
- viability, T/C [11]: 11.1%
- viability, T/C [12]: 9.31%
- viability, T/C [13]: 82.5%
- viability, T/C [14]: 55.6%
- viability, T/C [15]: 36.2%
- viability, T/C [16]: 14.2%
- viability, T/C [17]: 9.92%
- viability, T/C [18]: 9.81%
- viability, T/C [19]: 66.6%
- viability, T/C [20]: 47.7%
- viability, T/C [21]: 32.2%
- viability, T/C [22]: 12.7%
- viability, T/C [23]: 9.52%
- viability, T/C [24]: 8.47%
- viability, T/C [25]: 69.5%
- viability, T/C [26]: 47.7%
- viability, T/C [27]: 29.2%
- viability, T/C [28]: 11%
- viability, T/C [29]: 7.66%
- viability, T/C [30]: 7.56%

SMILES: Nc1ncn(C2CC(O)C(CO)S2)c(=O)n1 (stereo not given) + Cc1ccccc1N=Nc1ccc(NC(=O)c2ccnn2C)c(C)c1
- IC50 (second compound 0.1 µM): > 300 nM
- IC50 (second compound 0.316 µM): > 300 nM
- IC50 (second compound 1 µM): > 300 nM
- IC50 (second compound 3.16 µM): > 300 nM
- IC50 (second compound 10 µM): > 300 nM
- viability, T/C (second compound 0.1 µM, first compound 0.000949 µM): 105%
- viability, T/C (second compound 0.1 µM, first compound 0.003 µM): 108%
- viability, T/C [31]: 105%
- viability, T/C [32]: 101%
- viability, T/C [33]: 87.4%
- viability, T/C [34]: 79%
- viability, T/C (second compound 0.316 µM, first compound 0.000949 µM): 113%
- viability, T/C (second compound 0.316 µM, first compound 0.003 µM): 109%
- viability, T/C [35]: 112%
- viability, T/C [36]: 106%
- viability, T/C [37]: 86.5%
- viability, T/C [38]: 77.8%
- viability, T/C (second compound 1 µM, first compound 0.000949 µM): 114%
- viability, T/C (second compound 1 µM, first compound 0.003 µM): 115%
- viability, T/C [39]: 113%
- viability, T/C [40]: 108%
- viability, T/C [41]: 95%
- viability, T/C [42]: 82.5%
- viability, T/C (second compound 3.16 µM, first compound 0.000949 µM): 112%
- viability, T/C (second compound 3.16 µM, first compound 0.003 µM): 112%
- viability, T/C [43]: 114%
- viability, T/C [44]: 110%
- viability, T/C [45]: 95.6%
- viability, T/C [46]: 80%
- viability, T/C (second compound 10 µM, first compound 0.000949 µM): 107%
- viability, T/C (second compound 10 µM, first compound 0.003 µM): 111%
- viability, T/C [47]: 108%
- viability, T/C [48]: 108%
- viability, T/C [49]: 89.2%
- viability, T/C [50]: 78.8%
